The values below are quoted from earlier work in patent US20130121964A1, “Pharmacogenomic and Response-Guided Treatment of Infectious Disease Using Yeast-Based Immunotherapy” (GLOBEIMMUNE, INC., priority 2010, published 2013).

Each structure is given as a SMILES string.

For data set [1] the following is noted: in vivo.

`NC(=O)c1ncn([C@@H]2O[C@H](CO)[C@@H](O)[C@H]2O)n1` [Ribavirin, 1-(beta)-D-ribofuranosyl-1H-1,2,4-triazole-3-carboxamide]: the “patients with hemolytic anemia” value in data set [1] is 20-30%. For the same compound, the “solubility in anhydrous alcohol” value (anhydrous alcohol) is “slightly soluble”. Where the note is “water”, the solubility in water entry is “freely soluble”.
